This note sets out measurements from patent US7319109B2, “Farnesoid X receptor agonists” (Smith Kline Beecham Corporation, priority 2002, dated 2008).

The structures appear in SMILES notation.

The target in the test is T1, Human FXRα Ligand Binding Domain (FXRα LBD) (Homo sapiens, UniProt Q96RI1).
T1 construct: polyhistidine (N); made in house; host or cells: E. coli BL21 (DE3), pRSET-A vector
T1 sequence (Q96RI1 222-472 isoform Q96RI1-2): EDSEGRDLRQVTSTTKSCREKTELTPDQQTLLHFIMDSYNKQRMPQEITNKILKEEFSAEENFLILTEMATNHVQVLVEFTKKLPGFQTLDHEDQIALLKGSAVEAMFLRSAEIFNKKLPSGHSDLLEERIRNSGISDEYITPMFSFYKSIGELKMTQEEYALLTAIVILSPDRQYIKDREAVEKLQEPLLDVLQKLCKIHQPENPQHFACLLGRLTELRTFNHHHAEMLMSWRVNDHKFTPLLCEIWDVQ
In words: FXR Affinity Binding Assay: ligand mediated cofactor peptide (SRC-1 LCD2, 676-700) interaction, time resolved fluorescence. Conditions: FXRα LBD-APC / europium labeled SRC-1 peptide, TRF signal, at least 2 hours at room temperature; read-out: Activity (pEC50) (converted).
In the case of `COC(=O)c1ccc(S(=O)(=O)N(C)c2ccc(OCc3c(-c4c(Cl)cccc4Cl)noc3C(C)C)cc2)cc1` [Example 60, Methyl 4-{[(4-{[3-(2,6-dichlorophenyl)-5-isopropylisoxazol-4-yl]methoxy}phenyl)-(methyl)amino]sulfonyl}benzoate], the EC50 is 1020 to 10000 nM.

Consider `CC(C)c1onc(-c2c(Cl)cccc2Cl)c1COc1ccc(N(C)C(=O)c2ccc(C(=O)O)cc2)c(Cl)c1` [Example 31, 4-[(2-Chloro-4-{[3-(2,6-dichlorophenyl)-5-isopropyl-4-isoxazolyl]methoxy}methylanilino)carbonyl]benzoic acid], for which the EC50 was 102 to 1000 nM.

As to `CC(C)c1onc(-c2c(Cl)cccc2Cl)c1COc1ccc(CNc2cccc(C(=O)O)c2)c(Cl)c1` [Example 94, 3-[(2-Chloro-4-{[3-(2,6-dichlorophenyl)-5-isopropylisoxazol-4-yl]methoxy}benzyl)amino]benzoic acid], the EC50 is 102 to 1000 nM.

As for `COC(=O)c1cccc(S(=O)(=O)Nc2ccc(OCc3c(-c4c(Cl)cccc4Cl)noc3C(C)C)cc2Cl)c1` [Example 36, Methyl 3-{[(2-chloro-4-{[3-(2,6-dichlorophenyl)-5-isopropylisoxazol-4-yl]methoxy}-phenyl)amino]sulfonyl}benzoate], the EC50 was 102 to 1000 nM.

As for `Cc1cc(OCc2c(-c3c(Cl)cccc3Cl)noc2C(C)C)ccc1N(C)Cc1ccc(C(=O)O)cc1` [Example 5, 4-[(4-{[3-(2,6-Dichlorophenyl)-5-isopropyl-4-isoxazolyl]methoxy}-2-dimethylanilino)methyl]benzoic acid], the EC50 is less than 100 nM.

As for `CC(C)c1onc(-c2ccccc2OC(F)(F)F)c1COc1ccc(N(C)C(=O)c2cccc(C(=O)O)c2)c(Cl)c1` [Example 34, 3-{[2-Chloro-4-({5-isopropyl-3-[2-(trifluoromethoxy)phenyl]-4-isoxazolyl}methoxy)methylanilino]carbonyl}benzoic acid], the EC50 was 102 to 1000 nM.

Consider `Cc1cc(OCc2c(Cc3ccccc3Cl)noc2C(C)C)ccc1N(C)Cc1cccc(C(=O)O)c1` [Example 16, 3-{[(4-{[3-(2-Chlorobenzyl)-5-isopropylisoxazol-4-yl]methoxy}-2-methylphenyl)(methyl)-amino]methyl}benzoic acid], for which the EC50 is 102 to 1000 nM.

For the compound `CCc1onc(Cc2c(Cl)cccc2Cl)c1COc1ccc(N(C)Cc2cccc(C(=O)O)c2)c(C)c1` [Example 13, 3-[(4-{[3-(2,6-Dichlorobenzyl)-5-ethyl-4-isoxazolyl]methoxy}-2-dimethylanilino)methyl]benzoic acid], the EC50 was 102 to 1000 nM.

Regarding `CC(C)c1onc(-c2c(Cl)cccc2Cl)c1COc1ccc(CSc2cccc(C(=O)O)c2)c(Cl)c1` [Example 78, 3-[(2-Chloro-4-{[3-(2,6-dichlorophenyl)-5-isopropylisoxazol-4-yl]methoxy}benzyl)thio]-benzoic acid], the EC50 was less than 100 nM.

In the case of `CCOC(=O)c1cccc(NCc2ccc(OCc3c(-c4ccccc4OC(F)(F)F)noc3C(C)C)cc2Cl)c1` [Example 95, Ethyl 3-{[2-chloro-4-({5-isopropyl-3-[2-(trifluoromethoxy)phenyl]-4-isoxazolyl}methoxy)benzyl]amino}benzoate], the EC50 was 102 to 1000 nM.

Regarding `CC(C)c1onc(-c2ccccc2OC(F)(F)F)c1COc1ccc(NS(=O)(=O)c2cccc(C(=O)O)c2)c(Cl)c1` [Example 68, 3-({[2-Chloro-4-({5-isopropyl-3-[2-(trifluoromethoxy)phenyl]isoxazol-4-yl}methoxy)-phenyl]amino}sulfonyl)benzoic acid], the EC50 was 1020 to 10000 nM.

As to `COC(=O)c1cccc(S(=O)(=O)N(C)c2ccc(OCc3c(-c4ccccc4OC(F)(F)F)noc3C(C)C)cc2C)c1` [Example 71, Methyl 3-{[[4-({5-isopropyl-3-[2-(trifluoromethoxy)phenyl]isoxazol-4-yl}methoxy)-2-methylphenyl](methyl)amino]sulfonyl}benzoate], the EC50 was 102 to 1000 nM.

As to `CC(C)c1onc(-c2ccccc2OC(F)(F)F)c1COc1ccc(N(C)S(=O)(=O)c2cccc(C(=O)O)c2)c(Cl)c1` [Example 72, 3-{[[2-Chloro-4-({5-isopropyl-3-[2-(trifluoromethoxy)phenyl]isoxazol-4-yl}methoxy)-phenyl](methyl)amino]sulfonyl}benzoic acid], the EC50 is 102 to 1000 nM.

On to `CC(C)c1onc(-c2c(Cl)cccc2Cl)c1COc1ccc(NCc2cccc(C(=O)O)c2)c(Cl)c1` [Example 3, 3-{[(2-Chloro-4-{[3-(2,6-dichlorophenyl)-5-isopropylisoxazol-4-yl]methoxy}phenyl)amino]methyl}benzoic acid], for which the EC50 was 102 to 1000 nM.

Regarding `Cc1cc(OCc2c(-c3c(Cl)cccc3Cl)noc2C(C)C)ccc1NC(=O)c1ccc(C(=O)O)cc1` [Example 27, 4-[(4-{[3-(2,6-Dichlorophenyl)-5-isopropyl-4-isoxazolyl]methoxy}-2-methylanilino)carbonyl]benzoic acid], the EC50 was 102 to 1000 nM.

Turning to `COC(=O)c1cccc(OCc2ccc(OCc3c(-c4ccccc4OC(F)(F)F)noc3C(C)C)cc2Cl)c1` [Example 83, Methyl 3-{[2-chloro-4-({5-isopropyl-3-[2-(trifluoromethoxy)-phenyl]isoxazol-4-yl}methoxy)benzyl]oxy}benzoate], the EC50 was 102 to 1000 nM.

On to `COC(=O)c1cccc(S(=O)(=O)N(C)c2ccc(OCc3c(-c4c(Cl)cccc4Cl)noc3C(C)C)cc2)c1` [Example 42, Methyl 3-{[(4-{[3-(2,6-dichlorophenyl)-5-isopropylisoxazol-4-yl]methoxy}phenyl)-(methyl)amino]sulfonyl}benzoate], for which the EC50 was 102 to 1000 nM.

For `CCN(c1ccc(OCc2c(-c3c(Cl)cccc3Cl)noc2C(C)C)cc1Cl)S(=O)(=O)c1ccc(C(=O)O)cc1` [Example 65, 4-{[(2-Chloro-4-{[3-(2,6-dichlorophenyl)-5-isopropylisoxazol-4-yl]methoxy}phenyl)-(ethyl)amino]sulfonyl}benzoic acid], the EC50 was less than 100 nM.

For the compound `Cc1cc(OCc2c(-c3ccccc3OC(F)(F)F)noc2C(C)C)ccc1N(C)Cc1ccc(C(=O)O)cc1` [Example 19, 4-{[4-({5-Isopropyl-3-[2-(trifluoromethoxy)phenyl]-4-isoxazolyl}methoxy)-2-dimethylanilino]methyl}benzoic acid], the EC50 was less than 100 nM.

On to `Cc1cc(OCc2c(-c3c(Cl)cccc3Cl)noc2C(C)C)ccc1N(C)Cc1ccc(CO)cc1` [Example 12, {4-[(4-{[3-(2,6-Dichlorophenyl)-5-isopropyl-4-isoxazolyl]methoxy}-2-dimethylanilino)methyl]phenyl}methanol], for which the EC50 was less than 100 nM.

With `CC(C)c1onc(-c2ccccc2OC(F)(F)F)c1COc1ccc(COc2cccc(C(=O)O)c2)c(Cl)c1` [Example 85, 3-{[2-Chloro-4-({5-isopropyl-3-[2-(trifluoromethoxy)phenyl]isoxazol-4-yl}methoxy)-benzyl]oxy}benzoic acid], the EC50 was 102 to 1000 nM.

Take `COC(=O)c1cccc(S(=O)(=O)Nc2ccc(OCc3c(-c4c(Cl)cccc4Cl)noc3C(C)C)cc2)c1` [Example 38, Methyl 3-{[(4-{[3-(2,6-dichlorophenyl)-5-isopropylisoxazol-4yl]methoxy}phenyl)amino]-sulfonyl}benzoate]: the EC50 was 102 to 1000 nM.

In the case of `COC(=O)c1ccc(S(=O)(=O)Nc2ccc(OCc3c(-c4c(Cl)cccc4Cl)noc3C(C)C)cc2C)cc1` [Example 54, Methyl 4-{[(4-{[3-(2,6-dichlorophenyl)-5-isopropylisoxazol-4-yl]methoxy}-2-methyl-phenyl)amino]sulfonyl}benzoate], the EC50 was less than 100 nM.

With `Cc1cc(OCc2c(-c3c(Cl)cccc3Cl)noc2C(C)C)ccc1N(C)Cc1cccc(CO)c1` [Example 11, {3-[(4-{[3-(2,6-Dichlorophenyl)-5-isopropyl-4-isoxazolyl]methoxy}-2-dimethylanilino)methyl]phenyl}methanol], the EC50 is less than 100 nM.

For `Cc1cc(OCc2c(-c3ccccc3OC(F)(F)F)noc2C(C)C)ccc1N(C)Cc1ccc(C(=O)O)o1` [Example 18, 5-{[4-({5-Isopropyl-3-[2-(trifluoromethoxy)phenyl]-4-isoxazolyl}methoxy)-2-dimethylanilino]methyl}-2-furoic acid], the EC50 is less than 100 nM.

On to `Cc1cc(OCc2c(-c3c(Cl)cccc3Cl)noc2C(C)C)ccc1N(C)S(=O)(=O)c1ccc(C(=O)O)cc1` [Example 63, 4-{[(4-{[3-(2,6-Dichlorophenyl)-5-isopropylisoxazol-4-yl]methoxy}-2-methylphenyl)-(methyl)amino]sulfonyl}benzoic acid], for which the EC50 was 102 to 1000 nM.

Take `Cc1cc(OCc2c(-c3ccccc3OC(F)(F)F)noc2C(C)C)ccc1NS(=O)(=O)c1cccc(C(=O)O)c1` [Example 69, 3-({[4-({5-Isopropyl-3-[2-(trifluoromethoxy)phenyl]isoxazol-4-yl}methoxy)-2-methyl-phenyl]amino}sulfonyl)benzoic acid]: the EC50 was 102 to 1000 nM.

Take `CC(C)c1onc(-c2c(Cl)cccc2Cl)c1COc1ccc(N(C)S(=O)(=O)c2ccc(C(=O)O)cc2)cc1` [Example 64, 4-{[(4-{[3-(2,6-Dichlorophenyl)-5-isopropylisoxazol-4-yl]methoxy}phenyl)(methyl)-amino]sulfonyl}benzoic acid]: the EC50 was 102 to 1000 nM.

With `Cc1cc(OCc2c(-c3ccccc3OC(F)(F)F)noc2C(C)C)ccc1COc1cccc(C(=O)O)c1` [Example 86, 3-{[4-({5-Isopropyl-3-[2-(trifluoromethoxy)phenyl]isoxazol-4-yl}methoxy)-2-methyl-benzyl]oxy}benzoic acid], the EC50 was 102 to 1000 nM.
